The subject of one experiment is HEK293 cells. Description: HEK293 VLCFA-LPC IC50 determination (13C-labeled C26:0 LPC by UHPLC/MS). Format: cell-based, human. The note with it: Homo sapiens, HEK293, 48 h, average of one or more replicates; 13C-labeled C26:0 LPC, 48 hours; read-out: Average HEK293 IC50. The essentials: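 Suspension HEK293 cells (final 0.5 million/mL after mixing with equal volume) incubated 48 hours with compound plus 13C-acetate (1.0 mg/mL in added media), shaking at 37° C. Lipids extracted with hexane/isopropanol or methanol, C13:0 LPC standard. UHPLC/MS of 13C-labeled C26:0 LPC (638.500/104.100 m/z); IC50 by four-parameter fit.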
Usually IC50 stands for the midpoint of a concentration-inhibition curve. For `O=C(Nc1ccn(-c2ncns2)n1)C1(c2ccccc2F)CC1` [Compound 406, 1-(2-fluorophenyl)-N-[1-(1,2,4-thiadiazol-5-yl)pyrazol-3-yl]cyclopropanecarboxamide], the IC50 is 18 nM. With `O=C(Nc1ccn(-c2cncc(Cl)c2)n1)C1(c2ccccc2F)CC1` [Compound 325, N-[1-(5-chloro-3-pyridyl)pyrazol-3-yl]-1-(2-fluorophenyl)cyclopropanecarboxamide], the half-inhibitory concentration (IC50) stood at 73 nM. Take `O=C(Nc1nn(-c2ccnc(F)c2)cc1F)C1(c2ccccc2F)CC1` [Compound 365, N-(4-fluoro-1-(2-fluoropyridin-4-yl)-1H-pyrazol-3-yl)-1-(2-fluorophenyl)cyclopropane-1-carboxamide]: the IC50 was 410 nM.

On to `Cc1ncnc(C)c1-n1ccc(NC(=O)C2(c3ccccc3F)CC2)n1` [Compound 339, N-[1-(4,6-dimethylpyrimidin-5-yl)pyrazol-3-yl]-1-(2-fluorophenyl)cyclopropanecarboxamide], for which the IC50 was over 5000 nM. As for `O=C(Nc1ccn(-c2ccncc2)n1)C1(c2ccccc2)CC1(F)F` (single isomer, unassigned) [Compound 433], the IC50 turned out to be 320 nM. On the same count and under the same terms, with `O=C(Nc1ccn(-c2ccnc(C(F)(F)F)c2)n1)C1(c2ccccc2F)CC1` [Compound 324, 1-(2-fluorophenyl)-N-(1-(2-(trifluoromethyl)pyridin-4-yl)-1H-pyrazol-3-yl)cyclopropane-1-carboxamide] the figure was over 5000 nM.

Still in this experiment, the particulars now being: Homo sapiens, HEK293, HEK293 cells; average of one or more replicates; read-out: Average HEK293 IC50.
For the compound `O=C(Nc1ccn(-c2ccnc(F)c2)n1)C1(c2ccc(Cl)cc2Cl)CC1` [Compound 253, 1-(2,4-dichlorophenyl)-N-[1-(2-fluoro-4-pyridyl)pyrazol-3-yl]cyclopropanecarboxamide], the IC50 came to 120 nM.

Consider `[2H]C([2H])([2H])Oc1cc(-n2ccc(NC(=O)C3(c4ccccc4F)CC3)n2)ccn1` [Compound 439, 1-(2-fluorophenyl)-N-[1-[2-(trideuteriomethoxy)-4-pyridyl]pyrazol-3-yl]cyclopropanecarboxamide], for which the IC50 turned out to be 80 nM. Regarding `CCC(C)(C(=O)Nc1ccn(-c2ccnc(F)c2)n1)c1ccccc1` (stereo not shown) [Compound 294, N-[1-(2-fluoro-4-pyridyl)pyrazol-3-yl]-2-methyl-2-phenyl-butanamide], the IC50 was determined as 390 nM. In the case of `COc1ncc(-n2ccc(NC(=O)C3(c4ncccn4)CC3)n2)cc1F` [Compound 535, N-[1-(5-fluoro-6-methoxy-3-pyridyl)pyrazol-3-yl]-1-pyrimidin-2-yl-cyclopropanecarboxamide], the IC50 is over 5000 nM.

On to `O=C(Cc1ccccc1F)Nc1ccn(-c2ccnc(F)c2)n1` [Compound 203, 2-(2-fluorophenyl)-N-[1-(2-fluoro-4-pyridyl)pyrazol-3-yl]acetamide], for which the IC50 came out at 100 nM.

Regarding `Cc1ccc(-n2ccc(NC(=O)Cc3ccccc3)n2)cn1` [Compound 117, N-[1-(6-methyl-3-pyridyl)pyrazol-3-yl]-2-phenyl-acetamide], the IC50 is over 5000 nM. Same read-out and setting: then `Cn1ccc(-n2ccc(NC(=O)Cc3ccccc3)n2)n1` [Compound 228, N-[1-(1-methylpyrazol-3-yl)pyrazol-3-yl]-2-phenyl-acetamide], with over 5000 nM. With `O=C(Cc1ccccc1F)Nc1ccn(-c2ncccc2F)n1` [Compound 94, 2-(2-fluorophenyl)-N-[1-(3-fluoro-2-pyridyl)pyrazol-3-yl]acetamide], the IC50 is over 10000 nM. Regarding `O=C(Nc1ccn(-c2ccnc(F)c2)n1)C1(c2ccccc2)CC1` [Compound 237, N-[1-(2-fluoro-4-pyridyl)pyrazol-3-yl]-1-phenyl-cyclopropanecarboxamide], the IC50 was 22 nM.

Take `Cc1cc(NC(=O)C2(c3ncccn3)CC2)nn1-c1ccc(F)cc1F` [Compound 533, N-[1-(2,4-difluorophenyl)-5-methyl-pyrazol-3-yl]-1-pyrimidin-2-yl-cyclopropanecarboxamide]: the IC50 is over 2000 nM. As to `O=C(Nc1ccn(-c2ccncc2)n1)C1(c2ncccn2)CC1` [Compound 536, N-[1-(4-pyridyl)pyrazol-3-yl]-1-pyrimidin-2-yl-cyclopropanecarboxamide], the IC50 is over 5000 nM. `Cc1ccnn1CC(=O)Nc1ccn(-c2ccnc(F)c2)n1` [Compound 282, N-[1-(2-fluoro-4-pyridyl)pyrazol-3-yl]-2-(5-methylpyrazol-1-yl)acetamide]: the IC50 is over 2000 nM. Still for that read-out and setting: then `O=C(Nc1ccn(-c2ccccc2)n1)C1(c2cc(F)ccc2F)CC1` [Compound 261, 1-(2,5-difluorophenyl)-N-(1-phenylpyrazol-3-yl)cyclopropanecarboxamide], with 160 nM; and `Cn1cnc(-n2ccc(NC(=O)C3(c4ccccc4F)CC3)n2)c1` [Compound 392, 1-(2-fluorophenyl)-N-(1-(1-methyl-1H-imidazol-4-yl)-1H-pyrazol-3-yl)cyclopropane-1-carboxamide], with over 5000 nM. For the compound `O=C(Cc1ccccc1C(F)(F)F)Nc1ccn(-c2ccccc2)n1` [Compound 52, N-(1-phenylpyrazol-3-yl)-2-[2-(trifluoromethyl)phenyl]acetamide], the IC50 came to 1100 nM. `O=C(Nc1ccn(-c2ccccc2)n1)C1(c2cccnc2)CC1` [Compound 224, N-(1-phenylpyrazol-3-yl)-1-(3-pyridyl)cyclopropanecarboxamide]: the IC50 stood at 1400 nM. Regarding `COc1ccnc(-n2ccc(NC(=O)C3(c4ccccc4F)CC3)n2)c1` [Compound 501, 1-(2-fluorophenyl)-N-[1-(4-methoxy-2-pyridyl)pyrazol-3-yl]cyclopropanecarboxamide], the IC50 is over 5000 nM. With `CCCC(C(=O)Nc1ccn(-c2ccnc(F)c2)n1)c1ccccc1` (stereo not shown) [Compound 173, N-(1-(2-fluoropyridin-4-yl)-1H-pyrazol-3-yl)-2-phenylpentanamide], the IC50 was 72 nM. With `CCOc1cc(-n2ccc(NC(=O)C3(c4ccccc4F)CC3)n2)ccn1` [Compound 449, N-[1-(2-ethoxy-4-pyridyl)pyrazol-3-yl]-1-(2-fluorophenyl)cyclopropanecarboxamide], the IC50 was over 5000 nM. As for `O=C(Nc1ccn(-c2cncc(OC(F)F)c2)n1)C1(c2cnccn2)CC1` [Compound 496, N-[1-[5-(difluoromethoxy)-3-pyridyl]pyrazol-3-yl]-1-pyrazin-2-yl-cyclopropanecarboxamide], the IC50 is over 5000 nM. For the compound `O=C(Cc1ccccc1)Nc1ccn(-c2ncccc2F)n1` [Compound 93, N-[1-(3-fluoro-2-pyridyl)pyrazol-3-yl]-2-phenyl-acetamide], the IC50 was over 10000 nM. For the compound `O=C(Nc1ccn(-c2cnoc2)n1)C1(c2ccccc2F)CC1` [Compound 424, 1-(2-fluorophenyl)-N-(1-(isoxazol-4-yl)-1H-pyrazol-3-yl)cyclopropane-1-carboxamide], the IC50 was over 5000 nM.

Turning to `COc1ncc(-n2nc(NC(=O)C3(c4ccccc4F)CC3)cc2F)cc1F` [Compound 442, N-[5-fluoro-1-(5-fluoro-6-methoxy-3-pyridyl)pyrazol-3-yl]-1-(2-fluorophenyl)cyclopropanecarboxamide], the IC50 is over 5000 nM. On the same count and under the same terms, then `O=C(Nc1cc(F)n(-c2cncc(F)c2)n1)C1(c2ccccc2F)CC1` [Compound 463, N-[5-fluoro-1-(5-fluoro-3-pyridyl)pyrazol-3-yl]-1-(2-fluorophenyl)cyclopropanecarboxamide], with over 5000 nM; and `O=C(Nc1ccn(-c2ccnc(F)c2)n1)C(c1ccccc1)C1CCCC1` (stereo not shown) [Compound 152, 2-cyclopentyl-N-[1-(2-fluoro-4-pyridyl)pyrazol-3-yl]-2-phenyl-acetamide], with 1700 nM. In the case of `O=C(Nc1ccn(-c2ccnc(F)c2)n1)C1(c2ccc3c(c2)OC(F)(F)O3)CC1` [Compound 285, 1-(2,2-difluoro-1,3-benzodioxol-5-yl)-N-[1-(2-fluoro-4-pyridyl)pyrazol-3-yl]cyclopropanecarboxamide], the IC50 turned out to be 40 nM. As for `COc1ccc(C2(C(=O)Nc3ccn(-c4ccccc4)n3)CC2)cc1` [Compound 25, 1-(4-methoxyphenyl)-N-(1-phenylpyrazol-3-yl)cyclopropanecarboxamide], the IC50 amounted to 3600 nM.

Turning to `O=C(Nc1ccn(-c2ccnc(OC(F)F)c2)n1)C1(c2ccccc2F)CC1` [Compound 395, N-(1-(2-(difluoromethoxy)pyridin-4-yl)-1H-pyrazol-3-yl)-1-(2-fluorophenyl)cyclopropane-1-carboxamide], the IC50 is over 5000 nM.

Take `COc1cc(-n2ccc(NC(=O)C3(c4ccccc4F)CC3)n2)c(F)cn1` [Compound 467, N-[1-(5-fluoro-2-methoxy-4-pyridyl)pyrazol-3-yl]-1-(2-fluorophenyl)cyclopropanecarboxamide]: the half-inhibitory concentration (IC50) worked out at 2700 nM.

For the compound `N#Cc1ccccc1C1(C(=O)Nc2ccn(-c3ccnc(F)c3)n2)CC1` [Compound 247, 1-(2-cyanophenyl)-N-[1-(2-fluoro-4-pyridyl)pyrazol-3-yl]cyclopropanecarboxamide], the IC50 turned out to be 2500 nM. Take `O=C(Cc1nccs1)Nc1ccn(-c2ccnc(F)c2)n1` [Compound 307, N-[1-(2-fluoro-4-pyridyl)pyrazol-3-yl]-2-thiazol-2-yl-acetamide]: the IC50 is over 2000 nM. On the same count and under the same terms, with `O=C(Nc1ccn(-c2ccccc2)n1)C1(c2c(F)cccc2F)CC1` [Compound 267, 1-(2,6-difluorophenyl)-N-(1-phenylpyrazol-3-yl)cyclopropanecarboxamide] the figure was 13 nM. On to `O=C(Nc1ccn(-c2ccc(Cl)c(F)c2)n1)C1(c2ccccc2F)CC1` [Compound 194, N-[1-(4-chloro-3-fluoro-phenyl)pyrazol-3-yl]-1-(2-fluorophenyl)cyclopropanecarboxamide], for which the IC50 is over 5000 nM. On to `Cc1cc(NC(=O)C2(c3ncccc3F)CC2C)nn1-c1ccc(F)cc1F` (stereo not shown) [Compound 507, N-[1-(2,4-difluorophenyl)-5-methyl-pyrazol-3-yl]-1-(3-fluoro-2-pyridyl)-2-methyl-cyclopropanecarboxamide], for which the IC50 is over 5000 nM.

The record behind these values is US20180251431A1 (VERTEX PHARMACEUTICALS INCORPORATED, priority 2016, published 2018).
